According to US9504751B2, “Stable pharmaceutical composition” (EVERFRONT BIOTECH INC., priority 2014, dated 2016):
≈ marks a conversion by molar mass, not a printed value.

Key:
[1] = Room-temperature stability test: appearance of the composition; type: physicochemical; settings: PBS
Description: The stability study of the pharmaceutical composition was performed by: (1) observing the appearance of the pharmaceutical composition after storage at room temperature for 3 or 7 days, and classifying the results into “V” (if the pharmaceutical composition remained homogeneous) and “X” (if the pharmaceutical composition separated into two layers or had precipitation) to evaluate the appearance stability; and (2) analyzing the purity of n-butylidenephthalide by measuring the impurities in the pharmaceutical composition through relative retention time (RRT) using a LCMS instrument with the following conditions.

[2] = Droplet size, electrical conductivity and zeta potential analyses; type: physicochemical; settings: sample with n-butylidenephthalide 200 μg/mL
Description: The pharmaceutical composition was formulated to provide a sample in which the concentration of n-butylidenephthalide is 200 μg/mL. The droplet size, electrical conductivity and zeta potential of the sample were analyzed using a high concentration nano-droplet size and zeta potential meter (Malvern Nano-ZS ZEN-3600).

[3] = Viscosity analysis (AR2000 rheometer); type: physicochemical
Description: The viscosity analysis was performed by measuring the relationship of viscosity of a sample to shear rate and rheological property of the sample using AR2000 rheometer (stress control) (from TA Instruments; measuring mold: cone and plate; amount of sample: 1 mL).

GBM 8401 cells = test: Cytotoxicity test (IC50 value), MTT cell survival assay; type: cell-based; settings: Homo sapiens, 24 hours
Description: GBM 8401 cells (i.e., a human brain glioblastoma multiforme cell line) were cultured in a 96-well culture plate with a cell number of 6×10^3 per well, and treated with pure n-butylidenephthalide (BP) or one of the pharmaceutical compositions for 24 hours. The treatment concentrations of active ingredient, n-butylidenephthalide (BP), were 0 μg/mL (i.e., control group), 12.5 μg/mL, 25 μg/mL, 50 μg/mL, 100 μg/mL and 200 μg/mL, respectively. Then, the half maximal inhibitory concentration (IC50) of each pharmaceutical composition to GBM 8401 cells was analyzed by MTT (3-(4,5-cimethylthiazol-2-yl)-2,5-diphenyl tetrazolium bromide) cell survival assay, to evaluate the cytotoxic effect.

[4] = In vitro artificial cellulose membrane test (Franz diffusion device); type: in vitro ADME; settings: 37° C., 10 hours
Description: A Franz diffusion device (SUNMEI instruments Co., Ltd, Taiwan) shown in FIG. 5 was used to estimate the ability of pure n-butylidenephthalide (BP) liquid and the pharmaceutical compositions to permeate trough the artificial cellulose membrane, to simulate their permeation through a nasal mucosa. The superficial area of diffusion of the device is about 4.5 cm^2, and the capacity volume of receptor chamber of the device is about 23 mL. […]

[5] = In vitro cell line permeation test; type: in vitro ADME, human; settings: human, RPMI 2650 cellular monolayer, 37° C., read-out: Peff ± SD
Description: (§1) [formula] V: Capacity of receptor chamber (mL) C0: Initial supplied concentration of drug (μg/mL) Peff: Permeability coefficient (cm/s) J: Flux (μg/cm^2·s) A: Superficial area of diffusion (cm^2)
(§2) [formula] Change of the concentration along with time under a stable status (μg/mLs)
(§3) RPMI 2650 cells (i.e., a human nasal septum squamous cell line) were seeded in a collagen-coated cell insert with 0.4 μm pore size and cultured for 2 days to lead the cells to form a cellular monolayer on the insert. The cell insert was then transferred into a 12-well plate with 1.5 mL of Hepes buffer inside. 0.5 mL of Hepes buffer containing pure n-butylidenephthalide or the pharmaceutical composition was added into the 12-well plate. Next, the 12-well plate was placed into an incubator (37° C., 5% CO2) and incubated. The buffer in each well of the 12-well plate was collected every 1 hour (6 hours in total), and the absorption spectrum of the sampled buffer was detected by a spectrophotometer at […] wavelength to calculate the concentration of n-butylidenephthalide or the pharmaceutical composition. The permeability coefficient (Peff) and flux (J) were calculated by using the above Formula 1 and Formula 2.

RPMI 2650 cells = test: In vitro cell line permeation test; type: in vitro ADME, human; settings: RPMI 2650 cellular monolayer, 37° C., 6 hours
Description: as §1, §2, §3

[6] = test system: 9 L (rat brain gliosarcoma cell line) tumor tissue; test: Intranasal treatment of rats with intracranially transplanted 9 L tumor; type: in vivo
Description: 9 L (i.e., a rat brain gliosarcoma cell line) tumor tissue was intracranially transplanted into rats. The test of drug treatment was conducted after the intracranial tumor formed. The test method includes: (i) using 400 mg/kg of chloral hydrate (Sigma-Aldrich Company Ltd.) to anesthetize the rats, shaving the hair on the head of rats after the rats were in a coma, and fixing the rats in a stereotaxic instrument (Lab Standard™ Stereotaxic Instrument); (ii) scissoring the scalp by shears to expose the cranium, setting the bregma as a center, and drilling a 5 mm hole at the positioned drilling site 3 mm right to and 5 mm below the bregma on the cranium by a drill; (iii) clamping the prepared 9 L tumor tissue (1×1×1 mm^3) by a forceps and transplanting it into 3 mm depths within the brain, and then, resting for 1 minute to coagulate the blood, removing the forceps, and coating the bone wax on the hole, lastly, suturing the scalp of rats and administering the rats with antibiotics; (iv) 7 days after the transplantation of tumor tissue, randomly grouping the rats as the following Table 11, and then, sucking a drug (n-butylidenephthalide (BP) or pharmaceutical composition 5) by a pipette and dropping the drug into the nasal cavity of the rats to conduct an intranasal administration, and repeating the administration for 30 days and recording the body weight of rats and the number of dead rats during this medical treatment; and (v) removing the tumor, and then, measuring the length-breadth of tumor by an electronic vernier caliper and calculating the total volume of tumor by using the following Formula 3, measuring the weight of tumor at the same time, and drawing the obtained values into a bar diagram and a curve diagram, to determine the therapeutic effect.

[7] = Solubility of n-butylidenephthalide in solvents; type: physicochemical; settings: organic solvent or mixture

CCCC=C1OC(=O)c2ccccc21 [Pure BP, n-butylidenephthalide]
Amount stable in the medium system ([1]; polyethoxylated castor oil, and ethanol with polypropylene glycol): up to 208 mg/mL | Amount stable in the medium system ([1]; polyethoxylated castor oil, and polyethylene glycol with dimethyl sulfoxide or with ethanol (Examples 1, 5 and 6)): up to 1000 mg/mL | Electrical conductivity [2]: 0.02 mS/cm | Zeta potential [2]: 0.38 mV | Average viscosity ± SD ([3]; cone and plate, 1 mL sample): 1.57 ± 0.01 ×10^−2 Pa · s | Rheological property (Newtonian or non-Newtonian fluid) ([3]; viscosity versus shear rate): Newtonian fluids | IC50 (GBM 8401 cells): 70 µg/mL (≈ 0.372 mM) | Flux ± SD [4]: 2.29 ± 0.23 10^−3 μg/cm^2 · s | Peff ± SD [4]: 0.76 ± 0.08 10^−6 cm/s | Papp at 6 h [5]: 1.59 ± 0.09 ×10⁻⁶ cm/s | Flux ± SD (RPMI 2650 cells): 0.32 ± 0.02 10^−3 μg/cm^2 · s | Growth of tumor ([6]; 160 mg/kg or 320 mg/kg, compared to control group): effective in inhibiting the growth of tumor | Survival rate ([6]; 160 mg/kg, 30 days): significantly increased and similar survival rates | Volume and weight of tumor ([6]; 160 mg/kg, 30 days): significantly reduced and similar volume and weight of tumor | solubility ([7]; in ethanol): > 222 mg/mL | solubility ([7]; in polyethylene glycol 400, polyethylene glycol 300 or polypropylene glycol): 70 to 120 mg/mL (≈ 372 to 638 mM)
